{"source": "ChEMBL document CHEMBL1156474", "about": "“Phenotypic and structural analyses of hepatitis C virus NS3 protease Arg155 variants: sensitivity to telaprevir (VX-950) and interferon alpha” (J Biol Chem, 2007)", "molecules": {"B1": {"name": "NS3 protease (Hepacivirus C), C1KIQ2 R155K (protein)", "chain": "APITAYAQQTRGLLGCIITSLTGRDKNQAEGEVQIVSTATQTFLATCINGVCWTVYHGAGTRTIASPKGPVIQMYTNVDKDLVGWPAPQGTRSLTPCTCGSSDLYLVTRHADVIPVRRRGDSRGSLLSPRPISYLKGSSGGPLLCPAGHAVGIFKAAVCTRGVAKAVDFIPVENLETTMRS"}, "B2": {"name": "NS3 protease (Hepacivirus C), C1KIQ2 R155T (protein)", "chain": "B1 chain with K155T"}, "B3": {"name": "NS3 protease (Hepacivirus C), C1KIQ2 R155S (protein)", "chain": "B1 chain with K155S"}}, "key": {"Hepatitis C virus [1]": {"system": "Hepatitis C virus", "assay": "Ratio of IC50 for HCV 1b with NS3-4 R155K mutation to IC50 for wild type HCV 1b", "assay_type": "functional, Hepacivirus hominis, genotype 1b"}, "Hepatitis C virus [2]": {"system": "Hepatitis C virus", "assay": "Ratio of IC50 for HCV 1b with NS3-4A R155T mutation to IC50 for wild type HCV 1b", "assay_type": "functional, Hepacivirus hominis, genotype 1b"}, "Hepatitis C virus [3]": {"system": "Hepatitis C virus", "assay": "Ratio of IC50 for HCV 1b with NS3-4A R155G mutation to IC50 for wild type HCV 1b", "assay_type": "functional, Hepacivirus hominis, genotype 1b"}, "Hepatitis C virus [4]": {"system": "Hepatitis C virus", "assay": "Antiviral activity against wild type HCV 1b Con1 in human Huh7 cells after 48 hrs by replicon cell assay", "assay_type": "functional, organism-based, Hepacivirus hominis", "settings": "genotype 1b Con 1, Huh-7, 48 h"}, "Hepatitis C virus [5]": {"system": "Hepatitis C virus", "assay": "Antiviral activity against HCV 1b Con1 with NS3-4A R155K mutation in human Huh7 cells after 48 hrs by replicon cell assay", "assay_type": "functional, organism-based, Hepacivirus hominis", "settings": "genotype 1b Con 1, Huh-7, 48 h"}, "Hepatitis C virus [6]": {"system": "Hepatitis C virus", "assay": "(§1) Antiviral activity against HCV 1b with NS3-4A R155T mutation in human Huh7 cells after 48 hrs by replicon cell assay", "assay_type": "functional, organism-based, Hepacivirus hominis", "settings": "genotype 1b, Huh-7, 48 h"}, "Hepatitis C virus [7]": {"system": "Hepatitis C virus", "assay": "Antiviral activity against HCV 1b with NS3-4A R155M mutation in human Huh7 cells after 48 hrs by replicon cell assay", "assay_type": "functional, organism-based, Hepacivirus hominis", "settings": "genotype 1b, Huh-7, 48 h"}, "Hepatitis C virus [8]": {"system": "Hepatitis C virus", "assay": "Antiviral activity against wild type HCV in human Huh7.5 cells assessed as replication capacity by luciferase assay", "assay_type": "functional, Hepacivirus hominis, Huh-7"}, "Hepatitis C virus [9]": {"system": "Hepatitis C virus", "assay": "Antiviral activity against HCV with NS3-4A R155K mutation in human Huh7.5 cells after assessed as replication capacity by luciferase assay relative to wild type HCV", "assay_type": "functional, Hepacivirus hominis, Huh-7"}, "Hepatitis C virus [10]": {"system": "Hepatitis C virus", "assay": "Antiviral activity against HCV with NS3-4A R155T mutation in human Huh7.5 cells assessed as replication capacity by luciferase assay relative to wild type HCV", "assay_type": "functional, Hepacivirus hominis, Huh-7"}, "Hepatitis C virus [11]": {"system": "Hepatitis C virus", "assay": "Antiviral activity against HCV with NS3-4A R155S mutation in human Huh7.5 cells assessed as replication capacity by luciferase assay relative to wild type HCV", "assay_type": "functional, Hepacivirus hominis, Huh-7"}, "Hepatitis C virus [12]": {"system": "Hepatitis C virus", "assay": "Antiviral activity against HCV with NS3-4A R155I mutation in human Huh7.5 cells assessed as replication capacity by luciferase assay relative to wild type HCV", "assay_type": "functional, Hepacivirus hominis, Huh-7"}, "Hepatitis C virus [13]": {"system": "Hepatitis C virus", "assay": "Antiviral activity against HCV with NS3-4A R155M mutation in human Huh7.5 cells assessed as replication capacity by luciferase assay relative to wild type HCV", "assay_type": "functional, Hepacivirus hominis, Huh-7"}, "Hepatitis C virus [14]": {"system": "Hepatitis C virus", "assay": "Antiviral activity against HCV with NS3-4A R155G mutation in human Huh7.5 cells assessed as replication capacity by luciferase assay relative to wild type HCV", "assay_type": "functional, Hepacivirus hominis, Huh-7"}, "Hepatitis C virus [15]": {"system": "Hepatitis C virus", "assay": "Ratio of IC50 for HCV 1b with NS3-4A R155I mutation to IC50 for wild type HCV 1b", "assay_type": "functional, Hepacivirus hominis, genotype 1b"}, "Hepatitis C virus [16]": {"system": "Hepatitis C virus", "assay": "Antiviral activity against HCV 1b with NS3-4A R155G mutation in human Huh7 cells after 48 hrs by replicon cell assay", "assay_type": "functional, organism-based, Hepacivirus hominis", "settings": "genotype 1b, Huh-7, 48 h"}, "Hepatitis C virus [17]": {"system": "Hepatitis C virus", "assay": "Ratio of IC50 for HCV 1b with NS3-4A R155S mutation to IC50 for wild type HCV 1b", "assay_type": "functional, Hepacivirus hominis, genotype 1b"}, "Hepatitis C virus [18]": {"system": "Hepatitis C virus", "assay": "Ratio of IC50 for HCV 1b with NS3-4A R155M mutation to IC50 for wild type HCV 1b", "assay_type": "functional, Hepacivirus hominis, genotype 1b"}, "[19]": {"assay": "Inhibition of wild type HCV 1a NS3-4A protease after 60 mins"}, "NS3 protease [20]": {"target": "NS3 protease (Hepacivirus C, UniProt C1KIQ2, R155K)", "assay": "Inhibition of HCV 1a NS3-4A R155K mutant protease after 60 mins", "parameters": "species or system Hepatitis C virus subtype 1a"}, "NS3 protease [21]": {"target": "NS3 protease (Hepacivirus C, UniProt C1KIQ2, R155T)", "sequence (C1KIQ2 entry or part of it R155T)": "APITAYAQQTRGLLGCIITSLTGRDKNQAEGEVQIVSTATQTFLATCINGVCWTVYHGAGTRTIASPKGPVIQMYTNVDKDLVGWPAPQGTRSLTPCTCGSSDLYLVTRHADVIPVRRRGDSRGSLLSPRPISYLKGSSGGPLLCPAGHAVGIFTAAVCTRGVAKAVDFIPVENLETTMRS", "assay": "Inhibition of HCV 1a NS3-4A R155T mutant protease after 60 mins", "parameters": "species or system Hepatitis C virus subtype 1a"}, "NS3 protease [22]": {"target": "NS3 protease (Hepacivirus C, UniProt C1KIQ2, R155S)", "sequence (C1KIQ2 entry or part of it R155S)": "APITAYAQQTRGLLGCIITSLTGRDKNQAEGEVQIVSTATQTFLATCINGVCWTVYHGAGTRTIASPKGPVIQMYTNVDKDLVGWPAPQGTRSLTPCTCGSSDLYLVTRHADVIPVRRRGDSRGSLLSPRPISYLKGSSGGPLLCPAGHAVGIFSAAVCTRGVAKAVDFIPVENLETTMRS", "assay": "Inhibition of HCV 1a NS3-4A protease R155S mutant after 60 mins", "parameters": "species or system Hepatitis C virus subtype 1a"}, "NS3 protease [23]": {"target": "NS3 protease (Hepacivirus C, UniProt C1KIQ2, R155I)", "sequence (C1KIQ2 entry or part of it R155I)": "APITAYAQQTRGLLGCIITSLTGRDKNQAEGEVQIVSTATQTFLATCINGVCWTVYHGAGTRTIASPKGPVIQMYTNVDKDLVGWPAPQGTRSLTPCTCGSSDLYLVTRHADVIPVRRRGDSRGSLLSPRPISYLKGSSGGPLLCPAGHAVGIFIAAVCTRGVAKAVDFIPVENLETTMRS", "assay": "Inhibition of HCV 1a NS3-4A R155I mutant protease after 60 mins", "parameters": "species or system Hepatitis C virus subtype 1a"}, "Hepatitis C virus [24]": {"system": "Hepatitis C virus", "assay": "as §1", "assay_type": "functional, organism-based, Hepacivirus hominis", "settings": "genotype 1b, Huh-7, 48 h", "remark": "listed apart in the source"}, "Hepatitis C virus [25]": {"system": "Hepatitis C virus", "assay": "Antiviral activity against HCV 1b with NS3-4A R155I mutation in human Huh7 cells after 48 hrs by replicon cell assay", "assay_type": "functional, organism-based, Hepacivirus hominis", "settings": "genotype 1b, Huh-7, 48 h"}, "[26]": {"system": "Hepatitis C virus subtype 1a", "description": "Activity of wild type HCV 1a NS3-4A protease"}, "[27]": {"substrate": "CCC[C@H](NC(=O)[C@@H]1[C@H]2CCC[C@H]2CN1C(=O)[C@@H](NC(=O)[C@@H](NC(=O)c1cnccn1)C1CCCCC1)C(C)(C)C)C(=O)C(=O)NC1CC1", "settings": "Hepatitis C virus subtype 1a"}, "[28]": {"substrate": "CCC[C@H](NC(=O)[C@@H]1[C@H]2CCC[C@H]2CN1C(=O)[C@@H](NC(=O)[C@@H](NC(=O)c1cnccn1)C1CCCCC1)C(C)(C)C)C(=O)C(=O)NC1CC1", "settings": "Hepatitis C virus subtype 1a", "remark": "listed apart in the source"}, "[29]": {"substrate": "CCC[C@H](NC(=O)[C@@H]1[C@H]2CCC[C@H]2CN1C(=O)[C@@H](NC(=O)[C@@H](NC(=O)c1cnccn1)C1CCCCC1)C(C)(C)C)C(=O)C(=O)NC1CC1", "settings": "Hepatitis C virus subtype 1a", "remark": "listed apart in the source"}}, "note": "Where a chain is given by its changes, count along the chain named. Numbers in names are those of the source."}
{"molecule": "NC(=O)c1ncn([C@@H]2O[C@H](CO)[C@@H](O)[C@H]2O)n1", "note": "[RIBAVIRIN]", "values": [{"measurement": "fold change (FC)", "setting": "Hepatitis C virus [1]", "value": 0.6}, {"measurement": "fold change (FC)", "setting": "Hepatitis C virus [2]", "value": 0.6}, {"measurement": "fold change (FC)", "setting": "Hepatitis C virus [3]", "value": 0.7}, {"measurement": "IC50", "setting": "Hepatitis C virus [4]", "value": 58, "unit": "µM"}, {"measurement": "IC50", "setting": "Hepatitis C virus [5]", "value": 37, "unit": "µM"}, {"measurement": "IC50", "setting": "Hepatitis C virus [6]", "value": 32, "unit": "µM"}, {"measurement": "IC50", "setting": "Hepatitis C virus [7]", "value": 39, "unit": "µM"}]}
{"molecule": "CCC[C@H](NC(=O)[C@@H]1[C@H]2CCC[C@H]2CN1C(=O)[C@@H](NC(=O)[C@@H](NC(=O)c1cnccn1)C1CCCCC1)C(C)(C)C)C(=O)C(=O)NC1CC1", "note": "[TELAPREVIR]", "values": [{"measurement": "Activity", "setting": "Hepatitis C virus [8]", "value": 100, "unit": "%"}, {"measurement": "Activity", "setting": "Hepatitis C virus [9]", "value": 80, "unit": "%"}, {"measurement": "Activity", "setting": "Hepatitis C virus [10]", "value": 41, "unit": "%"}, {"measurement": "Activity", "setting": "Hepatitis C virus [11]", "value": 45, "unit": "%"}, {"measurement": "Activity", "setting": "Hepatitis C virus [12]", "value": 19, "unit": "%"}, {"measurement": "Activity", "setting": "Hepatitis C virus [13]", "value": 18, "unit": "%"}, {"measurement": "Activity", "setting": "Hepatitis C virus [14]", "value": 10, "unit": "%"}, {"measurement": "fold change (FC)", "setting": "Hepatitis C virus [15]", "value": 24}, {"measurement": "IC50", "setting": "Hepatitis C virus [16]", "value": 3.6, "unit": "µM"}, {"measurement": "fold change (FC)", "setting": "Hepatitis C virus [1]", "value": 7.4}, {"measurement": "fold change (FC)", "setting": "Hepatitis C virus [2]", "value": 19.8}, {"measurement": "fold change (FC)", "setting": "Hepatitis C virus [17]", "value": 4.1}, {"measurement": "fold change (FC)", "setting": "Hepatitis C virus [18]", "value": 5.5}, {"measurement": "fold change (FC)", "setting": "Hepatitis C virus [3]", "value": 7.4}, {"measurement": "IC50", "setting": "[19]", "value": 0.05, "unit": "µM"}, {"measurement": "IC50", "setting": "NS3 protease [20]", "value": 0.51, "unit": "µM"}, {"measurement": "IC50", "setting": "NS3 protease [21]", "value": 0.49, "unit": "µM"}, {"measurement": "IC50", "setting": "NS3 protease [22]", "value": 1.15, "unit": "µM"}, {"measurement": "IC50", "setting": "NS3 protease [23]", "value": 0.88, "unit": "µM"}, {"measurement": "IC50", "setting": "Hepatitis C virus [4]", "value": 0.49, "unit": "µM"}, {"measurement": "IC50", "setting": "Hepatitis C virus [5]", "value": 3.6, "unit": "µM"}, {"measurement": "IC50", "setting": "Hepatitis C virus [6]", "value": 9.6, "unit": "µM"}, {"measurement": "IC50", "setting": "Hepatitis C virus [24]", "value": 2, "unit": "µM"}, {"measurement": "IC50", "setting": "Hepatitis C virus [25]", "value": 11.7, "unit": "µM"}, {"measurement": "IC50", "setting": "Hepatitis C virus [7]", "value": 2.7, "unit": "µM"}, {"measurement": "Km", "setting": "[26]", "value": 53, "unit": "µM"}]}
{"molecule": "B1", "values": [{"measurement": "Km", "setting": "[27]", "value": 168, "unit": "µM"}]}
{"molecule": "B2", "values": [{"measurement": "Km", "setting": "[28]", "value": 68, "unit": "µM"}]}
{"molecule": "B3", "values": [{"measurement": "Km", "setting": "[29]", "value": 552, "unit": "µM"}]}
